Experimental data reported in paper PMC10897015, “Investigation of anti-nociceptive, anti-inflammatory potential and ADMET studies of pure compounds isolated from Isodon rugosus Wall. ex Benth” (Frontiers in Pharmacology, 2024).
Several values for one entry are separate records, joined by “and”; a condition that tells them apart may be missing. Identical values can stand only once.

What was measured:
Swiss albino mice [1] = assay: Hot plate test with opioid receptor involvement; format: in vivo; settings: for Reaction time on hot plate, individual values: single animals; for Reaction time on the hot plate: compounds 50 mg/kg, Mor 5 mg/kg, Nal 1 mg/kg
COX-2 = target: T1, COX-2 (Homo sapiens, UniProt P35354); assay: Cyclooxygenase-2 inhibitory activity; format: biochemical; settings: for Percent Inhibition (COX-2), single replicates: replicates 1-3
T1 sequence (P35354 18-604): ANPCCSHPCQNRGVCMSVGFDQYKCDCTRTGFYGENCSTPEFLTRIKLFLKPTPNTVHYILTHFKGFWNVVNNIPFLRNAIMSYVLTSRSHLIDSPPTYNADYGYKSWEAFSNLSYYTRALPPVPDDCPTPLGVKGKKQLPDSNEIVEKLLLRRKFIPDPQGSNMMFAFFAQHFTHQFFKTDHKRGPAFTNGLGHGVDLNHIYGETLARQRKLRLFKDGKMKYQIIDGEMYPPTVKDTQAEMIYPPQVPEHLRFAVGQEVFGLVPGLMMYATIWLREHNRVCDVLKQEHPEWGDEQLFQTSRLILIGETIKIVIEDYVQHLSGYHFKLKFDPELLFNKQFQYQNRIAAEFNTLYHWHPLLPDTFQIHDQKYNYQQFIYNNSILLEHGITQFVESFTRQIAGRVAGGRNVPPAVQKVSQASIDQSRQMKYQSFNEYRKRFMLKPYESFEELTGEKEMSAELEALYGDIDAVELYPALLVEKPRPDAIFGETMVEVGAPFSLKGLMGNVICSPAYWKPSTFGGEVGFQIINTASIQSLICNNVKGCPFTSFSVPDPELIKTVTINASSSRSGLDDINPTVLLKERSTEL
Experimental: An enzyme solution with a concentration of 300 U/ml was prepared and activated using ice for 5 min with a 50 µL cofactor solution containing glutathione (0.9 mM), TMPD (N,N,N,N_tetramethyl-p-phenylenediaminedihydrochloride) (0.24 mM), and hematin (1 mM) in Tris buffer (0.1 M) with pH 8. The enzyme solution (60 µL) and test samples (20 µL) with various concentrations were incubated at room temperature for 5 minutes. Celecoxib was used as a positive control in the current assay. The absorbance of the samples was measured at 570 nm after the samples had been incubated for 5 min. Arachidonic acid (30 mM, 20 µL) was added to initiate the reaction. The percent inhibition was calculated from the absorbance value per unit time.

mice = assay: Carrageenan-induced paw edema; format: in vivo; settings: for % edema volume inhibition (mean): aspirin 10 mg/kg; for Paw edema percent inhibition, individual values / Paw edema, individual values: single animals
Experimental: The animals under study were divided into different groups. Prior to the experiment, the animals had only access to water. […] Additionally, the isolated compounds being tested were given 30 min before injecting 0.05 ml of 1% carrageenan into the sub-plantar region of the paw. To measure the volume changes in the paw, a digital plethysmometer was employed. Readings were taken before and after the carrageenan injection at hourly intervals over a total period of 5 h.

Swiss albino mice [2] = assay: Hot plate test, involvement of adrenergic receptors; format: in vivo; settings: single animals
Experimental: The analgesic effects of the isolated compounds were measured using the hot plate method at a monitored temperature of 55 ± 0.2°C. The Swiss albino mice were positioned on the heated surface of the hot plate, and the period from placement to the onset of licking their hind paws or starting jump movements was noted as the response latency (thermal reactions). The test compounds were injected intraperitoneally. […] The animal models were checked for thermal reactions at various time intervals after sample administration.
The outcomes of the positive control and tested compounds were compared in animals pretreated with yohimbine. […] Additionally, clonidine at a dose of 3 μg/kg was intravenously administered. The animals were then subjected to the hot plate method, as reported before.

In the case of `O=C(O)C=Cc1ccc(O)c(O)c1` [Compound 1, 3,4-dihydroxy-cinnamic acid], the “Reaction time on hot plate, individual values” (“Reaction time on hot plate” for short) (Swiss albino mice [1]; at 15, listed as Comp-1) is reported as 8.02 and 7.34 and 9.3, the “Reaction time on hot plate” value (Swiss albino mice [1]; at 30, listed as Comp-1) is reported as 7.19 and 7.2 and 7.18 and the “Reaction time on hot plate” value (Swiss albino mice [1]; at 45, listed as Comp-1) is reported as 6.4 and 7.3 and 6.26. The “Reaction time on hot plate” value (Swiss albino mice [1]; at 60, listed as Comp-1) was 8.1 and 9.57 and 7.46, the “Reaction time on hot plate” value (Swiss albino mice [1]; at 90, listed as Comp-1) was 6.12 and 7.38 and 8.02 and the “Reaction time on the hot plate” value (Swiss albino mice [1]; at 15 min) was 08.22 ± 0.07 s. For the same compound, the “Reaction time on the hot plate” value (Swiss albino mice [1]; at 15 min, listed as Comp-1) was 8.22 s, the “Reaction time on the hot plate” value (Swiss albino mice [1]; at 15 min, listed as compound 1) was 08.22 ± 0.07 s and the “Reaction time on the hot plate” value (Swiss albino mice [1]; at 30 min) was 07.19 ± 0.08 s. For the same compound, the “Reaction time on the hot plate” value (Swiss albino mice [1]; at 30 min, listed as Comp-1) was 7.19 s, the “Reaction time on the hot plate” value (Swiss albino mice [1]; at 30 min, listed as compound 1) was 07.19 ± 0.08 s and the “Reaction time on the hot plate” value (Swiss albino mice [1]; at 45 min) was 6.65 ± 0.05 s. The “Reaction time on the hot plate” value (Swiss albino mice [1]; at 45 min, listed as Comp-1) was 6.653 s, the “Reaction time on the hot plate” value (Swiss albino mice [1]; at 45 min, listed as compound 1) was 6.65 ± 0.05 s and the “Reaction time on the hot plate” value (Swiss albino mice [1]; at 60 min) was 8.38 ± 0.41 s. For the same compound, the “Reaction time on the hot plate” value (Swiss albino mice [1]; at 60 min, listed as Comp-1) was 8.377 s, the “Reaction time on the hot plate” value (Swiss albino mice [1]; at 60 min, listed as compound 1) was 8.38 ± 0.41 s and the “Reaction time on the hot plate” value (Swiss albino mice [1]; at 90 min) was 7.17 ± 0.57 s. For the same compound, the “Reaction time on the hot plate” value (Swiss albino mice [1]; at 90 min, listed as Comp-1) was 7.173 s, the “Reaction time on the hot plate” value (Swiss albino mice [1]; at 90 min, listed as compound 1) was 7.17 ± 0.57 s and the “% inhibition, COX-2 (mean ± SEM)” value (COX-2; 62.5 µg/ml, listed as Comp 1) was 51.9833%. For the same compound, the inhibition at 62.5 µg/mL (COX-2; 62.5 µg/ml, read-out: % inhibition, COX-2 (mean ± SEM)) was 51.6 ± 1.2%, the “% inhibition, COX-2 (mean ± SEM)” value (COX-2; 250 µg/ml, listed as Comp 1) was 62.5167% and the inhibition at 250 µg/mL (COX-2; 250 µg/ml, read-out: % inhibition, COX-2 (mean ± SEM)) was 62.5 ± 0.84%. The “% inhibition, COX-2 (mean ± SEM)” value (COX-2; 500 µg/ml, listed as Comp 1) was 68.4433%, the inhibition at 500 µg/mL (COX-2; 500 µg/ml, read-out: % inhibition, COX-2 (mean ± SEM)) was 68.42 ± 0.64% and the “% inhibition, COX-2 (mean ± SEM)” value (COX-2; 1000 µg/ml) was 72.63 ± 0.57 %. The inhibition at 1000 µg/mL (COX-2; 1000 µg/ml, read-out: % inhibition, COX-2 (mean ± SEM)) was 72.8%, the “Percent Inhibition (COX-2), single replicates” value (COX-2; 62.5, listed as Comp 1) was 51.85% and 51.98% and 52.12% and the “Percent Inhibition (COX-2), single replicates” value (COX-2; 125, listed as Comp 1) was 58.82% and 58.96% and 58.41%. For the same compound, the “Percent Inhibition (COX-2), single replicates” value (COX-2; 250, listed as Comp 1) was 62.79% and 63.2% and 61.56%, the “Percent Inhibition (COX-2), single replicates” value (COX-2; 500, listed as Comp 1) was 68.4% and 67.99% and 68.94% and the “Percent Inhibition (COX-2), single replicates” value (COX-2; 1000, listed as Comp 1) was 72.37% and 73.56% and 71.96%. The “% edema volume inhibition (mean)” value (mice; 1st hour after carrageenan) was 48.042%, the “% edema volume inhibition (mean)” value (mice; 2nd hour after carrageenan) was 54.02% and the “% edema volume inhibition (mean)” value (mice; 3rd hour after carrageenan) was 54.008%. The “% edema volume inhibition (mean)” value (mice; 4th hour after carrageenan) was 56.40 ± 0.42%, the “% edema volume inhibition (mean)” value (mice; 4th hour after carrageenan, listed as Comp 1) was 56.094% and the “% edema volume inhibition (mean)” value (mice; 5th hour after carrageenan) was 53.076%. For the same compound, the paw edema inhibition (mice; at various intervals) was greater than 50%, the “Paw edema percent inhibition, individual values” (“Paw edema percent inhibition” for short) (mice; hour 1, listed as Comp 1) was 50.39% and 48.96% and 47.65% and 47.13% and 46.08% and the “Paw edema, individual values” (mice; hour 1, listed as Comp 1) was 0.38 and 0.391 and 0.401 and 0.405 and 0.413. The “Paw edema percent inhibition” value (mice; hour 2, listed as Comp 1) was 53.99% and 52.64% and 55.48% and 52.1% and 55.89%, the “Paw edema, individual values” (mice; hour 2, listed as Comp 1) was 0.34 and 0.35 and 0.329 and 0.354 and 0.326 and the “Paw edema percent inhibition” value (mice; hour 3, listed as Comp 1) was 54.46% and 55.39% and 53.53% and 52.73% and 53.93%. For the same compound, the “Paw edema, individual values” (mice; hour 3, listed as Comp 1) was 0.342 and 0.335 and 0.349 and 0.355 and 0.346, the “Paw edema percent inhibition” value (mice; hour 4, listed as Comp 1) was 56.75% and 58.72% and 56.09% and 54.78% and 54.13% and the “Paw edema, individual values” (mice; hour 4, listed as Comp 1) was 0.33 and 0.315 and 0.335 and 0.345 and 0.35. The “Paw edema percent inhibition” value (mice; hour 5, listed as Comp 1) was 54.17% and 56.22% and 50.75% and 53.76% and 50.48%, the “Paw edema, individual values” (mice; hour 5, listed as Comp 1) was 0.335 and 0.32 and 0.36 and 0.338 and 0.362 and the “Hot plate analysis (adrenergic), individual values” (shortened to “Hot plate analysis (adrenergic)”) (Swiss albino mice [2]; 30 Minutes) was 4.43 and 5.1 and 6.1. For the same compound, the “Hot plate analysis (adrenergic)” value (Swiss albino mice [2]; 45 Minutes) was 6.87 and 5.78 and 7.3, the “Hot plate analysis (adrenergic)” value (Swiss albino mice [2]; 15 minutes) was 6.2 and 4.27 and 5.81 and the “Hot plate analysis (adrenergic)” value (Swiss albino mice [2]; 60 minutes) was 5.1 and 5.99 and 6.59. The “Hot plate analysis (adrenergic)” value (Swiss albino mice [2]; 90 minutes) was 4.1 and 4.82 and 5.34.
